Measurements from patent US20170119844A1, “HEMOSTATIC PHARMACEUTICAL COMPOSITION” (OTSUKA CHEMICAL CO., LTD., priority 2014, published 2017).

Experiment: Solubility in ultrapure water when preparing peptide solutions
Assay type: physicochemical

CC(=O)N[C@@H](CCCNC(=N)N)C(=O)N[C@@H](C)C(=O)N[C@@H](CC(=O)O)C(=O)N[C@@H](C)C(=O)N[C@@H](CCCNC(=N)N)C(=O)N[C@@H](C)C(=O)N[C@@H](CC(=O)O)C(=O)N[C@@H](C)C(=O)N[C@@H](CCCNC(=N)N)C(=O)N[C@@H](C)C(=O)N[C@@H](CC(=O)O)C(=O)N[C@@H](C)C(=O)N[C@@H](CCCNC(=N)N)C(=O)N[C@@H](C)C(=O)N[C@@H](CC(=O)O)C(=O)N[C@@H](C)C(N)=O [(RADA)4]
solubility in water: did not completely dissolve at a concentration of 2% by weight or higher
